Patent US10718029B2, “Treatment targeting oncology and neurodegeneration” (priority 2008, dated 2020)
Read-outs that look alike come from different tables or passages of the source.

What was measured:
TGF Béta = conditions: publication of Lecanda and Gold, March 2009; cited from earlier work
E2F4 = test: Fluorescence localization of E2F4 in nuclei during TPA treatment; type: cell-based, human; conditions: TPA 25 nM
Method: (§1) During this TPA treatment (25 nM), when E2F4, p130 and LIV21 were studied (green fluorescence) in the nuclei labelled (DNA) with propidium iodide (red fluorescence), the following were observed: […]

estrogen receptors (ERs) = conditions: MCF-7 cells, background statement; cited from earlier work
cells of benign tumors = conditions: background statement; cited from earlier work
LIV21 [1] = test: Cell fractionation, LIV21 expression profile in cytoplasm and nuclear fraction; type: cell-based, human; conditions: cultures treated with peptide at 2 μM compared with TPA-treated cultures
Description: The study of the specific role of the PKC epsilon on the nuclear translocation of Liv 21F can use a peptide which inhibits function PKC epsilon and the translocation like previously described but also according to the protocol of reference of Si RNA of PKC epsilon. The profile of expression observed corresponds to a doublet of tapes in the cytoplasm with approximately 51 KD (and with a tape of 64 kD according to the siRNA used) whereas it corresponds only to one simple tape with 50 kD in the nuclear fraction.

LIV21 [2] = conditions: TPA-treated MCF-7 lines; cited from earlier work
PKCzeta (PKCζ) = test: Western blotting of PKCzeta expression (internal control) under TPA treatment; type: cell-based, human
Description: (§2) Western blotting study: Given that the protein sequence of LIV21 has putative PKCε phosphorylation sites, including two specific for PKCε, the inventor tested the variation in the expression of this PKC as a function of the duration of TPA treatment. […] The expression of PKCzeta (PKCζ) is used as an internal control since it is not sensitive to TPA.

protein kinases C (PKCs) = conditions: MCF-7 cells, background statement; cited from earlier work
PKCε = molecular target: T1, PKCε (Homo sapiens, UniProt Q02156); test: Western blotting of PKCε expression as a function of the duration of TPA treatment; type: cell-based; conditions: MCF-7 cells
T1 construct: endogenous in cells; host or cells: MCF-7
T1 sequence (Q02156 1-737): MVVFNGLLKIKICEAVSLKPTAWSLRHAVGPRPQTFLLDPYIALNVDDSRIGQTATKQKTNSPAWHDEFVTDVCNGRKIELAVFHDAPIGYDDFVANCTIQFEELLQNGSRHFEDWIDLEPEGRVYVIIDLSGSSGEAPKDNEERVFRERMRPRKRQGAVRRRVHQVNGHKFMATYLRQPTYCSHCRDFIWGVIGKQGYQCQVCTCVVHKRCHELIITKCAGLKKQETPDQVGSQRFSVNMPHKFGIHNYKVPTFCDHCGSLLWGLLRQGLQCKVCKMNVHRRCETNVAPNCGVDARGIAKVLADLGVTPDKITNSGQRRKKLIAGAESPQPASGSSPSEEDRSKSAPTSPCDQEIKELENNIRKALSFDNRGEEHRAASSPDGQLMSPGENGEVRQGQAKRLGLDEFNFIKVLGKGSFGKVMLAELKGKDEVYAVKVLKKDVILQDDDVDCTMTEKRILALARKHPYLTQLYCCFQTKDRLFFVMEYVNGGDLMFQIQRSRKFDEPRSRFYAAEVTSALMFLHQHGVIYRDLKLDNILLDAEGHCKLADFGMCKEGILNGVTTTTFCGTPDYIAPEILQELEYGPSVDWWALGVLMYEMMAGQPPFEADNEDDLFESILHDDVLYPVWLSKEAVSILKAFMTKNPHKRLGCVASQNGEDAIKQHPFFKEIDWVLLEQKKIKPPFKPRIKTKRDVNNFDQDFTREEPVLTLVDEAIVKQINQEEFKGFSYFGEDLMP
Description: as §2

p130 = test: Fluorescence localization of p130 in nuclei during TPA treatment; type: cell-based, human; conditions: TPA 25 nM, after 12 h
Method: as §1

MCF-7 line = conditions: cited from earlier work
MCF-7 cells = conditions: background statement; cited from earlier work
normal breast cells = conditions: background statement; cited from earlier work
LIV21 [3] = test: Fluorescence localization of LIV21 in nuclei during TPA treatment; type: cell-based, human; conditions: TPA 25 nM, after 12 h
Method: as §1

PKC = molecular target: T2, PKC (Homo sapiens, UniProt Q02156); conditions: PKC-specific inhibitory peptide; cited from earlier work
T2 construct: endogenous in cells; host or cells: MCF-7
T2 sequence (Q02156 1-737): T1 sequence (Q02156 1-737)

LIV21 [4] = test: Immunocytochemistry of the nuclear translocation of LIV21; type: cell-based, human; conditions: peptide 2 μM, 12 h, compared with TPA 25 nM
Description: To determine the specific action of PKCε on the translocation of LIV21, the crops were discussed with a peptide, selective antagonist of the function and translocation of this PKC (EAVSLKPT (SEQ ID No 6), and the results were compared with those obtained by processing with TP A. This peptide is recognized by the enzyme and links themselves as a substrate amended to the level of its catalytic site. Not phosphorylable, he acts as a specific inhibitor of the activity of PKCε.
The effect of the selective inhibition of the activity of PKCε on the nuclear translocation of LIV21 was studied by immunocytochemistry.

Molecule: Fc1ccc(Cl)cc1-c1nc(Nc2ccncc2)c2nccnc2n1 [SD208]
- TGF Béta events (increase and nuclear accumulation of p27 via smad 2 and smad 3) (TGF Béta): All these events are locked

Molecule: CCCCCCCCCCCCCC(=O)O[C@@H]1[C@@H](C)[C@@]2(O)[C@@H](C=C(CO)C[C@]3(O)C(=O)C(C)=C[C@@H]23)[C@H]2C(C)(C)[C@]12OC(C)=O [TPA, 12-0-tetradecanoyl phorbol-13-10 sumoate]
- E2F4 localization (E2F4; after 12 h): intranuclear green fluorescence signals
- E2F4 localization (E2F4; after 48 h): comparable localization
- E2F4 localization (E2F4; at 72 h): disappears from the nucleus
- expression and function of estrogen receptors (ERs) (estrogen receptors (ERs)): greatly and rapidly inhibits
- proliferation of the cells of benign tumors (cells of benign tumors): does not modify the proliferation
- LIV21 expression profile (LIV21 [1]): doublet in the cytoplasm and of a single band in the nuclear fraction
- LIV21 localization (LIV21 [2]): translocated into the nucleus
- expression of PKCzeta (PKCζ) (PKCzeta (PKCζ)): not sensitive
- translocation of protein kinases C (PKCs) from the cytosol to the membranes (protein kinases C (PKCs)): induces the time- and dose-dependent translocation
- PKCε expression (PKCε): decreases from 30 min
- p130 localization (p130): intranuclear green fluorescence signals
- cancerous proliferation (MCF-7 line; TPA-treated MCF-7 lines): inhibition of cancerous proliferation
- cell differentiation (MCF-7 line; TPA-treated MCF-7 lines): cell differentiation
- proliferation of the cells of human mammary tumor lines such as the MCF-7 line (MCF-7 line; background statement): drastically inhibits the proliferation
- migratory capacity of MCF-7 cells in vitro (MCF-7 cells): increases the migratory capacity
- growth of normal breast cells (normal breast cells): activates the growth
- LIV21 localization (LIV21 [3]): intranuclear green fluorescence signals

Molecule: EAVSLKPT [PKC inhibiting peptide]
- LIV21 expression profile (LIV21 [1]): doublet in the cytoplasm and of a single band in the nuclear fraction
- PKC activity versus expression (PKC): it was the activity and not the expression of PKC which was inhibited
- nuclear translocation of LIV21 (LIV21 [4]): effect identical to that of TPA
